Measurements published in patent publication US7989422B2, “Antibacterial agents” (Alchemia Limited, priority 2005, dated 2011).

Tests used:
Format in all cases: cell-based
[1] = test system: Enterococcus faecalis ATCC 29212; experiment: MIC against E. faecalis, microbroth dilution; conditions: MIC class
Description: (§1) Testing was conducted to determine the in vitro antimicrobial activity of a series of compounds synthesised by Alchemia Pty Ltd. The antimicrobial activity of each compound was determined at a single concentration (128 μg/mL) in Mueller Hinton (MH) broth against the ATCC type strain of Staphylococcus aureus. […] Compounds showing activity at concentrations up to 32-64 μg/mL in the presence/absence of serum were then tested for MIC activity against a standard set of 5 microorganisms comprising of ATCC type strains of MRSA, Enterococcus faecalis, Enterococcus faecium, VRE and Escherichia coli. CLSI (formerly NCCLS) microbroth dilution technique was used.
(§2) Each compound is initially dissolved in 100 μL of DMSO. Each solution is then diluted further in 0.9 mL of sterile MH broth to give a total volume of 1 mL (1000 μg/mL) This stock solution is then further diluted in MH broth to give a test solution with final concentration of 128 μg/mL using the following formula: 0.5 ml stock in 3.4 ml MH broth
(§3) Each test organism was subcultured from the −70° C. deep freezer onto horse blood agar. The plates were streaked to obtain isolated colonies and incubated at 35° C. in non-CO2 incubator for 24 hours. A second subculture was carried out onto horse blood agar. For each test organism, 1-2 colonies were selected from an 18-24 hour culture and inoculated into 2 ml sterile MH broth. The turbidity was adjusted to 0.5 McFarland standard.
(§4) A 1:10 dilution in MH broth (200 μL in 2 ml MH) of the 0.5 McFarland control was prepared. 5 μL of this diluted solution was used to inoculate the trays.
(§5) The trays were prepared in a similar way as mentioned above and incubated at 35° C. in a non-CO2 incubator for 18-24 hours. The plates were examined for growth after the incubation time.
(§6) After 18-24 hour incubation 5 μL from each well was then inoculated onto horse blood agar and incubated for 18-24 hours at 35° C. in a non-CO2 incubator.
(§7) If the test organism is sensitive to the compound in the broth the growth will be inhibited. Similarly, if the organism grows on the antibiotic containing medium then it is resistant to this particular antibiotic.

[2] = test system: Staphylococcus aureus (MRSA) ATCC 33591; experiment: MIC against MRSA, microbroth dilution; conditions: MIC class
Description: as §1, §2, §3, §4, §5, §6, §7

[3] = test system: Staphylococcus aureus ATCC 25923; experiment: MIC against S. aureus, microbroth dilution in MH broth, without or with 5% horse serum; conditions: MIC class; S. aureus ATCC 25923
Description: as §1, §2, §3, §4
100 μL of sterile MH broth was added in columns 2-12. 200 μL of test solution was added in column 1. 100 μL was transferred in column 2 giving a ½ dilution. 100 μL from column 2 was then transferred to column 3 (¼ dilution). This dilution was carried on until column 12. A second tray containing the same test solution was inoculated in a similar manner using sterile MH broth with 5% heat inactivated horse serum. 5 μL of organism solution was then added to each well. The plates were then sealed and incubated at 35° C. in a non-CO2 incubator for 18-24 hours. The plates were examined for growth after the incubation time.
as §7

[4] = test system: E. Faecium 51299 VanB; experiment: MIC against vancomycin-resistant enterococcus 51299 (VanB), microbroth dilution; conditions: MIC class; ATCC 51299 VanB
Description: as §1, §2, §3, §4, §5, §6, §7

[5] = test system: Enterococcus faecium ATCC 35667; experiment: MIC against E. faecium, microbroth dilution; conditions: MIC class
Description: as §1, §2, §3, §4, §5, §6, §7

Structure (SMILES) | E. Fecalis 29212 activity [1] | S. Aureus 33591 MRSA activity [2] | S. Aureus 25923 activity [3] | E. Faecium 51299 VanB activity [4] | E. Faecium 35667 activity [5]
Nc1cc(C(F)(F)F)cc(Cl)c1NC1COC(CO)C(NC(=O)c2ccc(-c3ccccc3)cc2)C1O (stereo not drawn) [Compound 200] | − (“−”: MIC (μg/mL): MIC > 64) | + (“+”: MIC (μg/mL): 64 ≧ MIC > 16) | − (“−”: MIC (μg/mL): MIC > 64) | − (“−”: MIC (μg/mL): MIC > 64) | − (“−”: MIC (μg/mL): MIC > 64)
Nc1cc(C(F)(F)F)cc(Cl)c1NC1COC(CO)C(NC(=O)C(N)Cc2ccc(-c3ccccc3)cc2)C1O (stereo not drawn) [Compound 202] | − (“−”: MIC (μg/mL): MIC > 64) | + (“+”: MIC (μg/mL): 64 ≧ MIC > 16) | + (“+”: MIC (μg/mL): 64 ≧ MIC > 16) | − (“−”: MIC (μg/mL): MIC > 64) | + (“+”: MIC (μg/mL): 64 ≧ MIC > 16)
CCCCCCCCCCCCC(N)C(=O)NC1C(CO)OCC(Nc2ccc(C(F)(F)F)cc2N)C1O (stereo not drawn) [Compound 207] | + (“+”: MIC (μg/mL): 64 ≧ MIC > 16) | + (“+”: MIC (μg/mL): 64 ≧ MIC > 16) | + (“+”: MIC (μg/mL): 64 ≧ MIC > 16) | + (“+”: MIC (μg/mL): 64 ≧ MIC > 16) | + (“+”: MIC (μg/mL): 64 ≧ MIC > 16)
NC(C(=O)Nc1nc2cc(C(F)(F)F)ccc2n1C1C(CO)OCC(NC(=O)Nc2ccc(Cl)c(C(F)(F)F)c2)C1O)c1ccc(-c2ccccc2)cc1 (stereo not drawn) [Compound 236] | ++ (“++”: MIC (μg/mL): MIC ≦ 16) | ++ (“++”: MIC (μg/mL): MIC ≦ 16) | − (“−”: MIC (μg/mL): MIC > 64) | + (“+”: MIC (μg/mL): 64 ≧ MIC > 16) | ++ (“++”: MIC (μg/mL): MIC ≦ 16)
NC(Cc1ccc(-c2ccccc2)cc1)C(=O)Nc1nc2cc(C(F)(F)F)ccc2n1C1C(CO)OCC(NC(=O)Nc2ccc(Cl)c(C(F)(F)F)c2)C1O (stereo not drawn) [Compound 237] | ++ (“++”: MIC (μg/mL): MIC ≦ 16) | ++ (“++”: MIC (μg/mL): MIC ≦ 16) | − (“−”: MIC (μg/mL): MIC > 64) | − (“−”: MIC (μg/mL): MIC > 64) | − (“−”: MIC (μg/mL): MIC > 64)
NC(CC(=O)Nc1nc2cc(C(F)(F)F)ccc2n1C1C(CO)OCC(NC(=O)Nc2ccc(Cl)c(C(F)(F)F)c2)C1O)c1ccc(-c2ccccc2)cc1 (stereo not drawn) [Compound 238] | ++ (“++”: MIC (μg/mL): MIC ≦ 16) | ++ (“++”: MIC (μg/mL): MIC ≦ 16) | − (“−”: MIC (μg/mL): MIC > 64) | − (“−”: MIC (μg/mL): MIC > 64) | − (“−”: MIC (μg/mL): MIC > 64)
NC(C(=O)Nc1nc2cc(C(F)(F)F)ccc2n1C1C(CO)OCC(NS(=O)(=O)c2ccc(C(F)(F)F)cc2)C1O)c1ccc(-c2ccccc2)cc1 (stereo not drawn) [Compound 240] | ++ (“++”: MIC (μg/mL): MIC ≦ 16) | ++ (“++”: MIC (μg/mL): MIC ≦ 16) | ++ (“++”: MIC (μg/mL): MIC ≦ 16) | − (“−”: MIC (μg/mL): MIC > 64) | − (“−”: MIC (μg/mL): MIC > 64)
NC(Cc1ccc(-c2ccccc2)cc1)C(=O)Nc1nc2cc(C(F)(F)F)ccc2n1C1C(CO)OCC(NS(=O)(=O)c2ccc(C(F)(F)F)cc2)C1O (stereo not drawn) [Compound 241] | ++ (“++”: MIC (μg/mL): MIC ≦ 16) | ++ (“++”: MIC (μg/mL): MIC ≦ 16) | ++ (“++”: MIC (μg/mL): MIC ≦ 16) | + (“+”: MIC (μg/mL): 64 ≧ MIC > 16) | ++ (“++”: MIC (μg/mL): MIC ≦ 16)
NC(CC(=O)Nc1nc2cc(C(F)(F)F)ccc2n1C1C(CO)OCC(NS(=O)(=O)c2ccc(C(F)(F)F)cc2)C1O)c1ccc(-c2ccccc2)cc1 (stereo not drawn) [Compound 242] | ++ (“++”: MIC (μg/mL): MIC ≦ 16) | ++ (“++”: MIC (μg/mL): MIC ≦ 16) | ++ (“++”: MIC (μg/mL): MIC ≦ 16) | − (“−”: MIC (μg/mL): MIC > 64) | ++ (“++”: MIC (μg/mL): MIC ≦ 16)
